Laboratory results from patent publication US10537607B2, “Treatment of autoimmune and/or inflammatory disease using novel caveolin modulators” (E&B TECHNOLOGIES LLC, priority 2013, dated 2020).
“Also recorded” adds a separate entry of the source.

Columns and labels:
BAEC = test: Quantification of internalization of fluorophore-labelled peptides; assay type: cell-based, bovine; settings: cultured endothelial cells
Method: Cultured BAEC were grown in 6-well plates until confluence was reached. Cells were washed and incubated in 1 mL of DMEM containing labeled peptides (10^−6 M) for 1, 2, 4 or 6 hours at 37° C., washed three times with cold PBS containing 0.1 M glycine (pH 4) to remove non-specific surface staining.
After complete media removal, cells were trypsinized, centrifuged and proteins were extracted by adding 150 μL of SDS-based or Triton X-100 lysis buffer. Membranes were removed by centrifugation, and internalized peptides were quantified by using a fluorescence plate reader (Perseptive Biosystems).
Cells incubated with peptides for 5 minutes and washed as described were used as basal surface staining. Linearity of both fluorophores used was determined by performing a concentration-fluorescence curve using lysis solution. Experiments with each fluorophore were performed individually to prevent cross-interference.

[1] = test system: VEGF-induced NO release (eNOS activity) in BAEC; test: VEGF-induced NO release in cultured BAEC; assay type: cell-based, bovine; settings: for effect on VEGF-induced NO release (in words) / inhibition of VEGF-induced NO release: 6 h pretreatment; for effect on basal (unstimulated) NO release: six-hour pretreatment, NO-specific chemiluminescence
Method: VEGF-induced NO release experiments were performed as previously described.
[…] Media was removed and fresh serum-free DMEM was added, with or without VEGF (10^−9 M) for 30 minutes. Media was collected, cells were trypsinized and counted, and nitrites levels in the supernatant were determined by using a Sievers NO chemiluminescence analyzer.

HUVEC = test: CPP imaging of live HUVEC (pulse/chase epifluorescence microscopy); assay type: cell-based, human; settings: for intracellular staining after pulse: carboxyfluorescein-Endo5 and rhodamine-AP, 10^−6M, 1 h at 37° C.; for intracellular staining after chase: two-hour chase in absence of CPP
Method: Freshly isolated HUVEC were grown in M199 media supplemented with glutamine, 10% FBS and endothelial cell growth supplement on Petri dishes with glass bottom. Since CPPs bind non-specifically to glass, the background fluorescence was reduced by pretreating glass-bottom Petri dishes with a blocking solution containing unlabelled AP and Endo5 for 30 minutes (5×10^−5 M) in colorless M199 media with 1% FBS.
After cell seeding, media was removed and carboxyfluorescin-labeled Endo5 and Rhodamine-labeled AP were added to cells (10^−5M) and cells were incubated at 37° C. and 5% CO2 for 1 hour (pulse). Media was removed, cells were rinsed once with warm culture media and peptide uptake was rapidly visualized on a Zess Axiovert inverted fluorescence microscope by performing a Z-stack of captured images followed by volume deconvolution (Openlab software). The new media was left on cells for an additional 2 hours (total 3 hours) to chase CPP localization, and cells were visualized again (chase).
In the present study, epifluorescence microscopy experiments were performed in live HUVEC to compare the uptake mechanism of Endo5 to AP. After blocking glass bottom Petri dishes with unlabeled AP and Endo5 to minimize non-specific binding of labeled peptides, freshly isolated HUVEC were grown to 50% confluent and labeled with a “pulse” of carboxyfluorescein-Endo5 and rhodamine-AP (10^−6M) for 1 h, rinsed, followed by a two-hour “chase” for a total of 3 hours.

[2] = test system: mustard oil-induced vascular permeability; assay type: in vivo, mouse; settings: mice, one-hour pretreatment, AP-Cav 1 mg/kg or same molar dose, vs carrier peptide alone, 30 min
Method: Plasma leakage in mouse skin was studied using the Miles assay as previously described. Briefly, male Swiss mice (30-35 g) were anesthetized and injected with Evans blue (30 mg/kg in PBS; Sigma). […] (5% in mineral oil), an analog of mustard oil (Pierce, Rockford, Ill.) was applied on the right ear with a cotton tip. The left ear was used as a control and was treated with mineral oil alone. After 30 minutes, the anesthetized animals were sacrificed, perfused, ears were removed, dried and weighed. Evans blue was extracted from the ears with formamide and quantified spectrophotometrically at 595 nm.

[3] = test system: experimental autoimmune encephalitis; settings: experimental model of autoimmune encephalitis; cited from earlier work
[4] = test system: dextran sulfate sodium colitis; test: Dextran sulfate sodium model of inflammatory bowel disease; assay type: in vivo, mouse; settings: C57B1/6 mice, DSS 2% in drinking water, 2.5 mg/kg i.p. daily from day 1
Method: C57B1/6 mice are fed dextran sulfate sodium 2% in the drinking water for 9 days. Body weights are measured daily. At the end of 9 days, mice are sacrificed and the first distal centimeter of the colon subject to histopathological analysis. Sections are scored according to the scoring system described in Jirkof et al., Burrowing is a sensitive behavioral assay for monitoring general wellbeing during dextran sulfate sodium colitis in laboratory mice. Laboratory animals. 2013, 47(4):274-83. doi: 10.1177/0023677213493409. PubMed PMID:23828853.

traumatic brain injury = test: Traumatic brain injury, controlled cortical impact model; assay type: in vivo, rat; settings: rats
Description: Sprague Dawley rats (10 week old) are anesthetized using 1-2% isoflurane and fixed in a stereotactic frame. The skull is surgically exposed and a craniectomy 2.5 mm in radius is made centered on coordinates −0.2 mm anterior and +0.2 mm lateral to midlineat the fronto-parietal cortex. A controlled cortical impactor (Pittsburgh Precision Instruments, Inc., Pittsburgh, Pa.) is used to deliver an impact using a velocity of 6.0 m/s and depth of 1.0 mm below the dura mater and duration of impact of 150 ms. The impactor is angled to impact the skull perpendicular to the brain at the point of impact. Animals are maintained at normal body temperature throughout the procedure. Following the impact, the incision is sutured and the animals are allowed to recover.
Neurological deficits are scored using the system of Clark assessed 24 and 48 hours post injury. See, Clark W et al., Citicoline treatment for experimental intracerebral hemorrhage in mice. Stroke; a journal of cerebral circulation. 1998; 29(10):2136-40. PubMed PMID: 9756595.
At 48 hours post TBI, rats are sacrificed and the brains sectioned and tissue processed for immunohistochemistry. […] See, Glushakov et al., Prostaglandin F2alpha FP receptor antagonist improves outcomes after experimental traumatic brain injury, Journal of neuroinflammation. 2013; 10(1):132. doi: 10.1186/1742-2094-10-132. PubMed PMID:24172576.

multiple sclerosis = test: Treatment of patients diagnosed with multiple sclerosis; assay type: in vivo, human; settings: 80 mg per day by subcutaneous injection
Method: Patients diagnosed with MS, including relapsing remitting and primary progressive types, are treated with Endo-5 CavAB (SEQ ID NO.1/SEQ ID NO. 6) (or other caveolin analog) at 80 mg per day by subcutaneous injection. […] The changes in the patient receiving the treatment are measured using the Multiple Sclerosis Functional Composite. See, e.g., the website of the National MS Society: Clinical Study Measures.

[5] = BAEC, peptide 10^−5 M, VEGF 10^−9 M 30 min

In the case of “RRPPR [Endo5, five-amino acid cell-permeable transport peptide]”, the “rate of uptake / internalization relative to AP” value (BAEC) is reported as “three times greater”, the “effect on VEGF-induced NO release (in words)” value [1, 5] is reported as “no significant effect” and the “effect on basal (unstimulated) NO release” value ([1]; BAEC, 10^−5 M) is reported as “no significant effect”. For the same substance, the “intracellular staining after pulse” value (HUVEC) was “diffuse punctate cytoplasmic staining” and the “intracellular staining after chase” value (HUVEC) was “more concentrated rather than diffuse pattern”.

With “Endo5 (RRPPR) with cargo DGIWKASFTTFTVTKYWFYR, caveolin-1 amino acids 82-101, fused to its C-terminus (RRPPRDGIWKASFTTFTVTKYWFYR; listed as Homo sapiens) [Endo5-Cav]” the “inhibition of mustard oil-induced vascular leakage” value [2] was 58%, the “eNOS inhibition (VEGF-induced NO release), in words” value ([1]; BAEC, 10^−5 M, 4 hours pretreatment) was “complete eNOS inhibition” and the “inhibition of VEGF-induced NO release after pretreatment with AP” value ([1]; BAEC, Endo5-Cav 10^−5 M 6 h, AP 5×10^−5 M pretreatment) was 30%. The “inhibition of VEGF-induced NO release after pretreatment with Endo5” value ([1]; BAEC, Endo5-Cav 10^−5 M 6 h, Endo5 5×10^−5 M pretreatment) was 13%, the “fate of the inhibition of VEGF-induced NO release after pretreatment with either AP or Endo5” value ([1]; BAEC, construct 10^−5 M 6 h, AP or Endo5 5×10^−5 M) was “partially prevented” and the “effect on VEGF-induced NO release (in words)” value [1, 5] was “completely impaired; also recorded: near-maximum effect; also recorded: completely blocked”. The “inhibition of VEGF-induced NO release” value [1, 5] was 91%, the “effect on basal (unstimulated) NO release” value ([1]; BAEC, 10^−5 M) was “no significant effect” and the “rate of uptake relative to AP-Cav” value ([1]; inferred from 2 h Endo5-Cav vs 6 h AP-Cav pretreatment, 10^−5 M) was “approximately three times”.

In the case of “cavtratin: caveolin mimetic, a fusion peptide of a cell penetrating peptide to the caveolin scaffolding domain; first generation (RQIKIWFQNRRMKWKKDGIWKASFTTFTVTKYWFYR)”, the “blood brain barrier disruption” value [3] is given as “inhibited”, the “clinical score / functional deficits” value [3] is given as “improve; also recorded: ameliorates” and the edema [3] is given as “block”. The “inflammatory cell (CD45+) invasion into the brain parenchyma” value [3] was “block; also recorded: inhibited”, the “histopathologic score of the colon” value [4] was “improve the histopathologic sore” and the “weight loss at 9 days” value [4] was “reduce the weight loss”. For the same substance, the “neurological deficits (Clark score)” value (traumatic brain injury; 2.5 mg/kg i.p. immediately after TBI and at 24 hours, scored 24 and 48 hours post injury) was “reduces the observed neurological deficits” and the “GFAP expression in the lesion penumbra” value (traumatic brain injury; 2.5 mg/kg i.p., 48 hours post TBI) was “reduces GFAP expression”.

With “Endo5-CavAB: 19-mer: Endo5 fused to Cav AB domain (amino acids 82-95 of human caveolin-1); second generation cavtratin (RRPPRDGIWKASFTTFTVT; listed as Homo sapiens)” the “histopathologic score of the colon” value [4] was “improve the histopathologic sore”, the “weight loss at 9 days” value [4] was “reduce the weight loss” and the “symptoms of MS (motor function, gait)” value (multiple sclerosis) was “improves the symptoms of MS”. For the same substance, the “inhibition of VEGF-induced NO release” value ([1]; BAEC, peptide 2×10^−6 M) was 49% and the “effect on VEGF-induced NO release (in words)” value [1, 5] was “completely blocked”.

In the case of “RQIKIWFQNRRMKWKK (listed as Rattus norvegicus) [AP, 16-mer Antennapedia cell-permeable peptide, reference compound]”, the “effect on VEGF-induced NO release (in words)” value [1, 5] is reported as “no significant effect”, the “effect on basal (unstimulated) NO release” value ([1]; BAEC, 10^−5 M) is reported as “no significant effect” and the “intracellular staining after pulse” value (HUVEC) is reported as “diffuse punctate cytoplasmic staining”. The “intracellular staining after chase” value (HUVEC) was “more concentrated rather than diffuse pattern”.
